One assay deals with MCF7. The experiment in a line: Cytotoxicity against Homo sapiens (human) MCF7 cells after 96 hr by MTT assay. Format: functional, cell-based. The settings on record: MCF7, 96 h.
A further assay relates to PC-3. The assay is described as follows: Cytotoxicity against Homo sapiens (human) PC3 cells after 96 hr by MTT assay. The settings on record: PC-3, 96 h. The format is functional, cell-based. (Formazan colour is commonly taken as a measure of viable cells.)
Assay [1] has as its target Methionine synthase (Homo sapiens) (UniProt Q99707). The experiment in a line: Inhibition of methionine synthase (unknown origin) by cell free assay. Particulars: concentration not given here. Details: concentration or dose not given beside the values.

Chain of Methionine synthase (Homo sapiens) (Q99707 whole entry): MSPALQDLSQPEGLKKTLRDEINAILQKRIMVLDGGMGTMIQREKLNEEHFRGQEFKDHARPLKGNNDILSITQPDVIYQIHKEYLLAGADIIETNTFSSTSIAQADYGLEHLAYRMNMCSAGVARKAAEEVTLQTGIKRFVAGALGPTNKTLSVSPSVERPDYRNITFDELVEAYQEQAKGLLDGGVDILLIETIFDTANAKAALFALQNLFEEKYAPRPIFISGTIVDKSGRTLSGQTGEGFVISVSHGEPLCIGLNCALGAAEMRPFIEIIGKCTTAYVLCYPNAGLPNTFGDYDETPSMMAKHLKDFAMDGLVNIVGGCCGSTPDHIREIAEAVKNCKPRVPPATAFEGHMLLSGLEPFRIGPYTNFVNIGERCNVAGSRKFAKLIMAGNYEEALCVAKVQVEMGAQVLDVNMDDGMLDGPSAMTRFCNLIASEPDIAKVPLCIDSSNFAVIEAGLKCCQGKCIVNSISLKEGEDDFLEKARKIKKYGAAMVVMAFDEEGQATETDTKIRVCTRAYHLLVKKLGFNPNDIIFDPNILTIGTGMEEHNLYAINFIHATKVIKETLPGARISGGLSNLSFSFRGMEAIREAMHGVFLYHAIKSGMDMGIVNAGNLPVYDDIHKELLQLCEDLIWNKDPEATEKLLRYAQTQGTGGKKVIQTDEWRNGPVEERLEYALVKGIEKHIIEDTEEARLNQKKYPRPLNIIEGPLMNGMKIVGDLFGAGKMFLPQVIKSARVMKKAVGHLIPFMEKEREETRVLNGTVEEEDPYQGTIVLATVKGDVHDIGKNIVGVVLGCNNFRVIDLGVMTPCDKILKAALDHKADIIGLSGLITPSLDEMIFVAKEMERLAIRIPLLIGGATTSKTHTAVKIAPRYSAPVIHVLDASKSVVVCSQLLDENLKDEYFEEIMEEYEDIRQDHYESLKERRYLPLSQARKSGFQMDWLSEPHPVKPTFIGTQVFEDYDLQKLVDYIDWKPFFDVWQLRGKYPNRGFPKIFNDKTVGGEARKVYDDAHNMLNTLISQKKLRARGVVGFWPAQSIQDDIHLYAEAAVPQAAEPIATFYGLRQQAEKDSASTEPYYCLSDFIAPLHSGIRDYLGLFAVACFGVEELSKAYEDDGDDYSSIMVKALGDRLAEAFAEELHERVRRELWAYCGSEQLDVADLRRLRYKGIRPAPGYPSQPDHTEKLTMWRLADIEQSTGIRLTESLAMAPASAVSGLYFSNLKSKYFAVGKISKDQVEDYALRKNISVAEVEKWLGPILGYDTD

Regarding `CNC(=O)c1ccc(NCc2cnc3cc([N+](=O)[O-])ccc3n2)cc1`, the IC50 (commonly the concentration at which inhibition is half-maximal) in the assay on MCF7 stood at 47 µM; in the assay on PC-3 it was 49 µM.

Take `O=C(O)c1ccc(NCc2cnc3cc([N+](=O)[O-])ccc3n2)cc1`: the inhibition (as a rule, the relative decrease from the control value, in per cent) in assay [1] came to 89%. The IC50 in the assay with MCF7 stood at 53 µM; in the assay with PC-3, 45 µM.

For the compound `O=[N+]([O-])c1ccc2nc(CNc3ccc(Cl)cc3)cnc2c1`, the inhibition in assay [1] worked out at 45%. Moreover, the IC50 amounted to 75 µM in the assay with MCF7 and 70 µM in the assay with PC-3.

As for `CCNC(=O)c1ccc(NCc2cnc3cc([N+](=O)[O-])ccc3n2)cc1`, the IC50 with MCF7 amounted to 49 µM; with PC-3 it was 66 µM.

`O=[N+]([O-])c1ccc2nc(CCl)cnc2c1` displayed an inhibition in assay [1] of 55%. The IC50 worked out at 66 µM in the assay with MCF7 and 70 µM in the assay with PC-3.

`Cc1cccc(NCc2cnc3cc([N+](=O)[O-])ccc3n2)c1` had an inhibition in assay [1] of 45%. The figures for the IC50 in the assay on MCF7 and with PC-3 were 79 µM and 77 µM, respectively.

`O=[N+]([O-])c1ccc2nc(CNc3ccccc3)cnc2c1` returned an inhibition in assay [1] of 65.9%. The results for the IC50 with MCF7 and with PC-3 were 61 µM and 56 µM, respectively.

`Cc1ccc(NCc2cnc3cc([N+](=O)[O-])ccc3n2)cc1`: the inhibition in assay [1] was found to be 65%. Moreover, the IC50 was 68 µM in the assay on MCF7 and 57 µM in the assay with PC-3.
